What was measured:
Conditions in all cases: 72 h
HL-60 [1] = assay: cell viability (% survival relative to DMSO control); higher = less cytotoxic
Outline: (§1)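 In 384-well plates, the full library was rescreened in duplicate on HL-60 cells in RPMI 1640 with 10% FBS, at 1–10,000 nM in five tenfold concentrations, for 72 h at 37 °C, 5% CO2. Each run also held DMSO or 100 nM of one of three metabolic inhibitors. Viability was measured by CellTiter-Glo and normalised to DMSO wells and to wells with proteasome inhibitor, present at 10 μM. Any area under the curve comes from four-parameter log-logistic fitting with drc and PharmacoGx.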

HL-60 [2] = assay: area under dose-response curve (viability, 1 nM-10 uM) (fraction (0-1)); higher = more sensitive
Outline: as §1

BV-173 [3] = test system: BV-173
Outline: (§2)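 Seeded in RPMI 1640 at densities within the linear growth range, fifteen myeloid leukaemia cell lines were dispensed into 384-well plates with acoustically pre-printed compounds spanning five tenfold doses from 1 to 10,000 nM, in duplicate. The plates were kept for 72 h at 37 °C in 5% CO2 before luminescent ATP viability was measured and normalised to vehicle and to a positive control at 10 µM. Curves were fitted with a four-parameter log-logistic model. The IC50 was taken from those curves.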

HEL [4] = test system: HEL
Outline: as §2

HL-60 [5] = test system: HL-60
Outline: as §2

K-562 [6] = test system: K-562
Outline: as §2

KCL-22 [7] = test system: KCL-22
Outline: as §2

KG-1 [8] = test system: KG-1
Outline: as §2

KU-812 [9] = test system: KU-812
Outline: as §2

LAMA-84 [10] = test system: LAMA-84
Outline: as §2

ML-2 [11] = test system: ML-2
Outline: as §2

MOLM-13 [12] = test system: MOLM-13
Outline: as §2

MV4-11 [13] = test system: MV4-11
Outline: as §2

Mono-Mac-6 [14] = test system: Mono-Mac-6
Outline: as §2

NOMO-1 [15] = test system: NOMO-1
Outline: as §2

SHI-1 [16] = test system: SHI-1
Outline: as §2

THP-1 [17] = test system: THP-1
Outline: as §2

BV-173 [18] = assay: cell viability (% survival relative to DMSO control, bortezomib = 0%); higher = less cytotoxic
Outline: (§3)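 Fifteen myeloid leukaemia cell lines were exposed to compounds at 1, 10, 100, 1000 or 10000 nM in 384-well plates for 72 h at 37 °C and 5% CO2. Viability was read by CellTiter-Glo luminescence and normalised, with vehicle as 100% and a 10 µM positive control as 0%. Values are percent survival averaged over duplicates.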

HEL [19] = assay: as above
Outline: as §3

HL-60 [20] = assay: as above
Outline: as §3

K-562 [21] = assay: as above
Outline: as §3

KCL-22 [22] = assay: as above
Outline: as §3

KG-1 [23] = assay: as above
Outline: as §3

KU-812 [24] = assay: as above
Outline: as §3

LAMA-84 [25] = assay: as above
Outline: as §3

ML-2 [26] = assay: as above
Outline: as §3

MOLM-13 [27] = assay: as above
Outline: as §3

MV4-11 [28] = assay: as above
Outline: as §3

Mono-Mac-6 [29] = assay: as above
Outline: as §3

NOMO-1 [30] = assay: as above
Outline: as §3

SHI-1 [31] = assay: as above
Outline: as §3

THP-1 [32] = assay: as above
Outline: as §3

CC(C)(O)CNc1nc(Nc2ccnc(C(F)(F)F)c2)nc(-c2cccc(C(F)(F)F)n2)n1 [AG-221]
cell viability [%], HL-60 [1]
Conditions | 0.001 µM | 0.01 µM | 0.1 µM | 1 µM | 10 µM
co-treatment: AZD3965 100 nM | 93.5 | 105 | 100 | 98.6 | 104
co-treatment: DMSO vehicle | 96.6 | 102 | 101 | 97.1 | 103
co-treatment: GSK2194069 100 nM | 85.8 | 95.9 | 100 | 89 | 94.2
co-treatment: pictilisib 100 nM | 89.3 | 104 | 102 | 94.9 | 108

HL-60 [2]
Conditions | area under dose-response curve
co-treatment: AZD3965 100 nM | < 0.0301
co-treatment: DMSO vehicle | < 0.0301
co-treatment: GSK2194069 100 nM | < 0.0301
co-treatment: pictilisib 100 nM | < 0.0301

CCOC(=O)c1cncn1[C@H](C)c1ccccc1 [Etomidate]
Conditions | IC50 (cell viability) [µM]
BV-173 [3] | > 10
HEL [4] | > 10
HL-60 [5] | > 10
K-562 [6] | > 10
KCL-22 [7] | > 10
KG-1 [8] | > 10
KU-812 [9] | > 10
LAMA-84 [10] | > 10
ML-2 [11] | > 10
MOLM-13 [12] | > 10
MV4-11 [13] | > 10
Mono-Mac-6 [14] | > 10
NOMO-1 [15] | > 10
SHI-1 [16] | > 10
THP-1 [17] | > 10

N#Cc1ccnc(N2C(=O)CC[C@H]2C(=O)N(c2cncc(F)c2)C(C(=O)NC2CC(F)(F)C2)c2ccccc2Cl)c1 (some centres undefined) [Ivosidenib]
Conditions | IC50 (cell viability) [µM]
BV-173 [3] | > 10
HEL [4] | > 10
HL-60 [5] | > 10
K-562 [6] | > 10
KCL-22 [7] | > 10
KG-1 [8] | > 10
KU-812 [9] | > 10
LAMA-84 [10] | > 10
ML-2 [11] | > 10
MOLM-13 [12] | > 10
MV4-11 [13] | > 10
Mono-Mac-6 [14] | > 10
NOMO-1 [15] | > 10
SHI-1 [16] | > 10
THP-1 [17] | > 10

cell viability [%]
Conditions | 1 nM | 10 nM | 100 nM | 1000 nM | 10000 nM
BV-173 [18] | 93.2 | 95.1 | 95.8 | 104 | 92.2
HEL [19] | 89.5 | 104 | 114 | 105 | 121
HL-60 [20] | 112 | 100 | 116 | 95.3 | 92.1
K-562 [21] | 90.3 | 105 | 101 | 99.2 | 93.3
KCL-22 [22] | 92.3 | 95.3 | 110 | 99 | 93.3
KG-1 [23] | 92.4 | 105 | 106 | 98.2 | 78.2
KU-812 [24] | 92.7 | 102 | 107 | 106 | 87.4
LAMA-84 [25] | 112 | 101 | 110 | 107 | 81.4
ML-2 [26] | 107 | 85.4 | 105 | 98.1 | 92
MOLM-13 [27] | 111 | 103 | 109 | 96 | 95.1
MV4-11 [28] | 98 | 104 | 107 | 110 | 94.5
Mono-Mac-6 [29] | 97.8 | 88.9 | 108 | 90.2 | 81.5
NOMO-1 [30] | 97.8 | 95.6 | 103 | 104 | 90.8
SHI-1 [31] | 99.1 | 104 | 100 | 95.4 | 104
THP-1 [32] | 103 | 94.9 | 107 | 102 | 96
